Source: US6403573B1, “Compounds of azetidine and pyrrolidin” (Akzo Nobel N.V., priority 2000, dated 2002)

Tests used:
DRL-72 test = assay type: in vivo, rats
Description: This test, carried out according to the protocol of Andrews et al [“Effects of imipramine and mirtazapine on operant performance in rats”—Drug Development Research 32: 58-66 (1994)], gives an indication of potential antidepressant-like activity.

5HT2C receptors = target: T1, 5HT2C receptors (Rattus norvegicus, UniProt P08909); assay: Penile erection test; assay type: in vivo, rats
T1 construct: from tissue; host or cells: living rats (in vivo)
T1 sequence (P08909 33-460): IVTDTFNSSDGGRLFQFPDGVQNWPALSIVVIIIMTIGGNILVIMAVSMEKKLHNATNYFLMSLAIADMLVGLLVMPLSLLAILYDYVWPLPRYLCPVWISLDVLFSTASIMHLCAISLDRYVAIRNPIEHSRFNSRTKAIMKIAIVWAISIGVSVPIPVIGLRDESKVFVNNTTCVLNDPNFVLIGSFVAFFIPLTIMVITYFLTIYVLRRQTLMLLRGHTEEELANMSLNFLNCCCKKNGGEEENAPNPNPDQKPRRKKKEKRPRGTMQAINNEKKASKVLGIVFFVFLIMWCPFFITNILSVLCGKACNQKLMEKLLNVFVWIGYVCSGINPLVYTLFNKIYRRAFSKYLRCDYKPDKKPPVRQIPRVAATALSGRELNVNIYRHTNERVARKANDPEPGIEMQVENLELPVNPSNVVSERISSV
Description: This test, carried out according to the protocol of Berendsen et al [“Involvement of 5-HT1C receptors in drug-induced penile erections in rats”—Psychopharmacology 101: 57-61(1990)] enables the potential in vivo activity at 5HT2C receptors to be assessed.

5-HT2C receptors = target: T2, 5-HT2C receptors (Homo sapiens, UniProt P28335); assay: Binding test, displacement of [3H]-mesulergine, cloned human receptors expressed in 3T3 cells
T2 construct: expressed in transfected cells; host or cells: 3T3 cells
T2 sequence (P28335 33-458): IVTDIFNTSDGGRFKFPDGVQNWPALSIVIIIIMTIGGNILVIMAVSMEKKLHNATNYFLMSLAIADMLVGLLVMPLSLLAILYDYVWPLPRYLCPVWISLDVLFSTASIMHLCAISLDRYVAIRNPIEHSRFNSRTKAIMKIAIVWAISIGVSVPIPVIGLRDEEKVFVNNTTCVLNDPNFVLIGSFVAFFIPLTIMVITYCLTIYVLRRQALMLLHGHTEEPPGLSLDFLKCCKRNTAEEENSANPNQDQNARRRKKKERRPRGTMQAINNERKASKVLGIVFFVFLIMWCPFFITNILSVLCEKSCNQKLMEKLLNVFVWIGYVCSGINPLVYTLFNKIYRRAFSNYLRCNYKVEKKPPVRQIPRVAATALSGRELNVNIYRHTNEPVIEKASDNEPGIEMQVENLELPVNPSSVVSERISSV
Description: The tests are carried out using cloned human receptors expressed in 3T3 cells according to the protocols described in Stam et at “Genomic organization, coding sequence and functional expression of human 5-HT2 and 5-HT1A receptor genes”—European Journal of Pharmacology—Molecular Pharmacology Section 227: 153-162 (1993) and Stam et al “Genomic organisation and functional expression of the gene encoding the human serotonin 5-HT2C receptor”—European Journal of Pharmacology—Molecular Pharmacology Section 269: 339-348 (1994).

Row | SMILES | melting point [°C] | other results
1 | COc1ccc(OC2CNC2)c2ccccc12.Cl | 198 | –
2 | Cl.c1cc(OC2CNC2)c2ccsc2c1 | 203 | –
3 | Cl.c1ccc2c(SC3CNC3)cccc2c1 | 159 | –
4 | COc1ccc2c(c1OC1CCNC1)CCC2.Cl (racemic) [Compound 10b, (rac)-3-[(2,3-Dihydro-5-methoxy-1H-inden-4-yl)oxy] pyrrolidine hydrochloride] | 154 | Increase in pellets earned in DRL-72 (MED) (DRL-72 test): 10 mg/kg; Erection of the penis (MED) (5HT2C receptors): 1 mg/kg
5 | Cc1ccc2ccccc2c1OC1CNC1.Cl | 171 | –
6 | COCc1ccc2ccccc2c1OC1CNC1.Cl | 127 | –
7 | Cl.Cl.c1cc(OC2CNC2)c2ccncc2c1 | 198 | –
8 | Cl.c1ccc2c(OC3CCNC3)cccc2c1 (racemic) [Compound 10c, (rac)-3-[(1-Naphtalenyl)oxy]pyrrolidine hydrochloride] | – | selective effect on 5-HT2C receptors in the central nervous system (5-HT2C receptors): selective effect on 5-HT2C receptors
9 | Cl.c1ccc2cc(OC3CNC3)ccc2c1 | 168 | –
10 | Cl.c1ccc2c(OC3CNC3)cccc2c1 | 292 | –
11 | COc1ccc2c(c1O[C@H]1CCNC1)CCC2.Cl [Compound 9a, (S)-(+)-3-[(2,3-Dihydro-5-methoxy-1H-inden-4-yl)oxy]-pyrrolidine Hydrochloride] | 176 | Increase in pellets earned in DRL-72 (MED) (DRL-72 test): 3 mg/kg; Erection of the penis (MED) (5HT2C receptors): 0.46 mg/kg
12 | Cl.Clc1cc(Cl)c2ccccc2c1OC1CNC1 | 187 | –
13 | COc1ccc2c(c1OC1CNC1)CCC2.Cl [Compound 5d, 3-[(2,3-Dihydro-5-methoxy-1H-inden-4-yl)oxy]-azetidine hydrochloride] | 166 | Increase in pellets earned in DRL-72 (MED) (DRL-72 test): 10 mg/kg; Erection of the penis (MED) (5HT2C receptors): 1 mg/kg
14 | Cl.c1cc2c(c(OC3CCNC3)c1)CCCC2 (centres unmarked) [Compound 9b, 3-[(5,6,7,8-Tetrahydro-1-naphthalenyl)oxy]-pyrrolidine hydrochloride] | 207 | selective effect on 5-HT2C receptors in the central nervous system (5-HT2C receptors): selective effect on 5-HT2C receptors

The next lines start with results.

Row | melting point [°C] | SMILES | other results
15 | 170 | CC1CCc2c(OC3CNC3)cc(F)cc21.Cl (centres unmarked) | –
16 | > 250 | Cl.c1cc2c(c(OC3CNC3)c1)NCCC2 | –
17 | 164 | COc1ccc2c(c1OC1CNC1)CCCC2.Cl | –
18 | 174 | COc1ccc2c(c1O[C@@H]1CCNC1)CCC2.Cl | –
19 | 65 | Cl.c1cc2c(c(OC3CNC3)c1)CCC2 | –
20 | 188 | Cl.Clc1ccc2c(c1OC1CNC1)CCC2 | –
21 | 180 | Cc1ccc(OC2CNC2)c2ccccc12.Cl | –
22 | 187 | Cl.c1cc2c(c(OC3CNC3)c1)CCCC2 | –
